Results: PubChem BioAssay AID330 (DTP/NCI, 2004)
Where “and” joins values, the source holds several entries; their conditions need not be identical. Identical values can stand only once. Toxic doses and inconclusive results are not listed. Rule for the calls: active = survival T/C of 150% or more; inactive = T/C below 125% in these data.

Test system: P388 leukemia ip, CD2F1 mice, survival T/C
Assay: NCI In Vivo Anticancer Drug Screen. Data for tumor model P388 Leukemia (intraperitoneal) in CD2F1 (CDF1) mice
Conditions: endpoint: median survival time, higher = longer survival
How it was run: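 Mice carrying the transplanted tumor received test compound or vehicle. Survival was recorded in each group, and the value is the treated-group measurement divided by that of the vehicle-treated control group.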

[1] = dose: 50.0 mg/kg/injection, schedule: Q01DX009 (ip), vehicle: saline with Tween-80
[2] = dose: 100.0 mg/kg/injection, schedule: Q01DX009 (ip), vehicle: saline with Tween-80
[3] = dose: 200.0 mg/kg/injection, schedule: Q01DX009 (ip), vehicle: saline with Tween-80
[4] = dose: 3.13 mg/kg/injection, schedule: Q01DX009 (ip), vehicle: saline with Tween-80
[5] = dose: 6.25 mg/kg/injection, schedule: Q01DX009 (ip), vehicle: saline with Tween-80
[6] = dose: 100.0 mg/kg/injection, schedule: Q04DX003 (ip), vehicle: Klucel (hydroxypropylcellulose) (HPC)
[7] = dose: 200.0 mg/kg/injection, schedule: Q04DX003 (ip), vehicle: Klucel (hydroxypropylcellulose) (HPC)

Measured: T/C

COC(=O)NC1C(C)OC(OC2C/C=C(/C)C3C=CC4C(OC5CC(OC6CCC(OC7CC(O)C(OC8CCC(O)C(C)O8)C(C)O7)C(C)O6)C(OC(C)=O)C(C)O5)C(C)CC(C)C4C3(C)/C(O)=C3/C(=O)OC4(CC(C=O)=CC(O)C4/C=C\2C)C3=O)CC1(C)[N+](=O)[O-] (stereo unspecified)
inactive: dose: 2.25 mg/kg/injection, schedule: Q01DX005 (iv), vehicle: water 97 % of control | dose: 2.5 mg/kg/injection, schedule: Q01DX005 (ip), vehicle: water 106 % of control and 120 % of control | dose: 3.06 mg/kg/injection, schedule: Q01DX005 (ip), vehicle: water 121 % of control | dose: 3.35 mg/kg/injection, schedule: Q01DX005 (iv), vehicle: water 96 % of control | dose: 4.49 mg/kg/injection, schedule: Q01DX005 (ip), vehicle: water 121 % of control | dose: 5.0 mg/kg/injection, schedule: Q01DX005 (ip), vehicle: water 121 % of control | dose: 5.0 mg/kg/injection, schedule: Q01DX005 (iv), vehicle: water 95 % of control | dose: 6.7 mg/kg/injection, schedule: Q01DX005 (ip), vehicle: water 118 % of control | dose: 7.47 mg/kg/injection, schedule: Q01DX005 (iv), vehicle: water 97 % of control | dose: 10.0 mg/kg/injection, schedule: Q01DX005 (ip), vehicle: water 121 % of control and 123 % of control and 124 % of control | dose: 11.14 mg/kg/injection, schedule: Q01DX005 (iv), vehicle: water 96 % of control

O=C(O)C(Cl)(c1ccccc1)C(Cl)c1ccccc1 (stereo unspecified)
inactive: [1] 104 % of control | [2] 95 % of control | [3] 100 % of control

CN(C)c1ccc(/C=C/c2ccncc2)cc1
inactive: dose: 1.56 mg/kg/injection, schedule: Q01DX009 (ip), vehicle: saline with Tween-80 104 % of control and 106 % of control | [4] 104 % of control and 113 % of control | [5] 102 % of control and 94 % of control

COP(=S)(OC)Oc1cc(Cl)c(Cl)cc1Cl
inactive: dose: 50.0 mg/kg/injection, schedule: Q04DX003 (ip), vehicle: saline 100 % of control | dose: 100.0 mg/kg/injection, schedule: Q04DX003 (ip), vehicle: saline 102 % of control | dose: 200.0 mg/kg/injection, schedule: Q04DX003 (ip), vehicle: saline 103 % of control | dose: 400.0 mg/kg/injection, schedule: Q04DX003 (ip), vehicle: saline 102 % of control

CCCCC1=C([Si](C)(C)C)C(=O)c2ccccc2C1=O
inactive: dose: 25.0 mg/kg/injection, schedule: Q01DX005 (ip), vehicle: Klucel (hydroxypropylcellulose) (HPC) 109 % of control | dose: 50.0 mg/kg/injection, schedule: Q01DX005 (ip), vehicle: Klucel (hydroxypropylcellulose) (HPC) 110 % of control and 111 % of control and 113 % of control | dose: 100.0 mg/kg/injection, schedule: Q01DX005 (ip), vehicle: Klucel (hydroxypropylcellulose) (HPC) 115 % of control and 86 % of control | dose: 200.0 mg/kg/injection, schedule: Q01DX005 (ip), vehicle: Klucel (hydroxypropylcellulose) (HPC) 110 % of control and 118 % of control

CCOC(=O)c1cc(=O)oc(=O)[nH]1
inactive: dose: 6.25 mg/kg/injection, schedule: Q04DX003 (ip), vehicle: Klucel (hydroxypropylcellulose) (HPC) 105 % of control | dose: 12.5 mg/kg/injection, schedule: Q04DX003 (ip), vehicle: Klucel (hydroxypropylcellulose) (HPC) 112 % of control | dose: 25.0 mg/kg/injection, schedule: Q04DX003 (ip), vehicle: Klucel (hydroxypropylcellulose) (HPC) 114 % of control | [6] 89 % of control | [7] 87 % of control

COC(=O)c1cc(NC(=O)Oc2ccccn2)cc(C(=O)OC)c1
inactive: dose: 50.0 mg/kg/injection, schedule: Q01DX009 (ip), vehicle: olive oil, sesame oil, peanut oil 98 % of control | dose: 100.0 mg/kg/injection, schedule: Q01DX009 (ip), vehicle: olive oil, sesame oil, peanut oil 97 % of control | dose: 200.0 mg/kg/injection, schedule: Q01DX009 (ip), vehicle: olive oil, sesame oil, peanut oil 99 % of control

Cc1c(N)nc(C(CC(N)=O)NCC(N)C(N)=O)nc1C(=O)NC(C(=O)NC(C)C(O)C(C)C(=O)NC(C(=O)NCCc1nc(-c2nc(C(=O)NCCCNC(C)c3ccccc3)cs2)cs1)C(C)O)C(OC1OC(CO)C(O)C(O)C1OC1OC(CO)C(O)C(OC(N)=O)C1O)c1cnc[nH]1 (stereo unspecified)
inactive: dose: 0.25 mg/kg/injection, schedule: Q01DX009 (ip), vehicle: water 104 % of control and 95 % of control | dose: 0.5 mg/kg/injection, schedule: Q01DX009 (ip), vehicle: water 100 % of control and 111 % of control and 88 % of control | dose: 1.0 mg/kg/injection, schedule: Q01DX009 (ip), vehicle: water 103 % of control and 104 % of control and 118 % of control | dose: 2.0 mg/kg/injection, schedule: Q01DX009 (ip), vehicle: water 100 % of control and 113 % of control | dose: 4.0 mg/kg/injection, schedule: Q01DX009 (ip), vehicle: water 114 % of control and 118 % of control | dose: 8.0 mg/kg/injection, schedule: Q01DX009 (ip), vehicle: water 100 % of control

CCCN(CCC)C(=O)O[Si](C)(C)C(C)(C)C
inactive: [1] 105 % of control | [2] 97 % of control | [3] 105 % of control

Cc1cccnc1NC(=S)Nc1ccccc1Cl
inactive: dose: 12.5 mg/kg/injection, schedule: Q01DX009 (ip), vehicle: gum acacia 104 % of control | dose: 25.0 mg/kg/injection, schedule: Q01DX009 (ip), vehicle: gum acacia 96 % of control | dose: 50.0 mg/kg/injection, schedule: Q01DX009 (ip), vehicle: gum acacia 104 % of control | dose: 100.0 mg/kg/injection, schedule: Q01DX009 (ip), vehicle: gum acacia 95 % of control

C[S+]1C2(C3CC4CC(C3)CC2C4)C12C1CC3CC(C1)CC2C3 (stereo unspecified)
inactive: dose: 50.0 mg/kg/injection, schedule: Q01DX005 (ip), vehicle: distilled water + alcohol 104 % of control | dose: 100.0 mg/kg/injection, schedule: Q01DX005 (ip), vehicle: distilled water + alcohol 109 % of control

CCOC(=O)CN=C(c1ccccc1)c1ccccc1
inactive: dose: 6.25 mg/kg/injection, schedule: Q01DX009 (ip), vehicle: saline 105 % of control | dose: 12.5 mg/kg/injection, schedule: Q01DX009 (ip), vehicle: saline 105 % of control | dose: 25.0 mg/kg/injection, schedule: Q01DX009 (ip), vehicle: saline 105 % of control | dose: 100.0 mg/kg/injection, schedule: Q01DX009 (ip), vehicle: saline 89 % of control

CCCCCCC(=O)/C=C/c1cccc(OCc2ccc(Cl)c(Cl)c2)c1
inactive: [1] 115 % of control | [2] 90 % of control | [3] 97 % of control

O=C(CCCN1CCC(C(O)c2ccc(F)cc2)CC1)c1ccc(F)cc1 (stereo unspecified)
inactive: dose: 3.0 mg/kg/injection, schedule: Q01DX005 (ip), vehicle: saline with Tween-80 101 % of control | [4] 98 % of control | dose: 6.0 mg/kg/injection, schedule: Q01DX005 (ip), vehicle: saline with Tween-80 104 % of control | [5] 92 % of control | dose: 12.0 mg/kg/injection, schedule: Q01DX005 (ip), vehicle: saline with Tween-80 98 % of control | dose: 12.5 mg/kg/injection, schedule: Q01DX009 (ip), vehicle: saline with Tween-80 103 % of control | dose: 25.0 mg/kg/injection, schedule: Q01DX009 (ip), vehicle: saline with Tween-80 107 % of control | dose: 50.0 mg/kg/injection, schedule: Q01DX005 (ip), vehicle: saline with Tween-80 114 % of control | [1] 100 % of control | [2] 95 % of control

CCCN1CN2C(C)C(c3ccccc3)OC2C(C)(C)C1 (stereo unspecified)
inactive: [1] 112 % of control | [2] 112 % of control | [3] 117 % of control

N#CC1(c2ccccc2)CCN(c2c3ccccc3nc3ccccc23)CC1
inactive: [6] 103 % of control and 110 % of control | [7] 109 % of control and 112 % of control | dose: 400.0 mg/kg/injection, schedule: Q04DX003 (ip), vehicle: Klucel (hydroxypropylcellulose) (HPC) 117 % of control and 123 % of control
